# Experimental data as given in US20170319562A1, “Compositions and Methods for Extended Therapy with Aminopyridines” (Acorda Therapeutics, Inc., priority 2009, published 2017).
# Where “and” joins values, the source holds several entries; their conditions need not be identical. Equal entries are not always repeated.
# Legend:
# [1] = tested on: patients with multiple sclerosis; assay: Pooled analysis of MS-F202, MS-F203 and MS-F204; type: in vivo, human; details: Timed-Walk Responders
# Description: The primary efficacy variable was analyzed by comparing 4-aminopyridine-SR 10 mg b.i.d., the now FDA-approved clinical dose, to placebo with respect to the proportion of patients with consistent improvements in walking speed (Timed-Walk Responders).
# A set of post-hoc analyses using a traditional definition of response based on threshold change was performed to provide additional evidence of the robustness of the primary analyses using the Timed-Walk Responder criterion. For these analyses, a patient was defined as a “% Responder” at various thresholds of response (at average increases in walking speed during the treatment period of at least 10%, 20%, etc. up to 60% from baseline). Fisher's Exact test was used to compare 4-aminopyridine to placebo for each study and for the pooled analysis.
# DesignAVIethods: All patients from MS-F202, MS-F203 and MS-F204 were included in a pooled analysis. Patients with clinically definite multiple sclerosis were randomized to 4-aminopyridine-SR 10 mg bid or placebo for up to 14 weeks. The primary efficacy variable was defined as a faster walking speed on the Timed 25-Foot Walk (T25FW) for at least 3 of 4 double-blind efficacy visits compared with the maximum walking speed on any of 5 off-treatment visits, and was determined prospectively for MS-F203 and MS-F204 and retrospectively in MS-F202. The average Walking Speed (“WS”) over four baseline and four treatment visits were compared by treatment and TWR status.
# All patients from MS-F202, MS-F203 and MS-F204 were included in a pooled analysis. Patients with clinically definite multiple sclerosis were randomized to 4-aminopyridine-SR 10 mg bid or placebo for up to 14 weeks. The primary efficacy variable was defined as a faster walking speed on the Timed 25-Foot Walk (T25FW) for at least 3 of 4 double-blind efficacy visits compared with the maximum walking speed on any of 5 off-treatment visits, and was determined prospectively for MS-F203 and MS-F204 and retrospectively in MS-F202.
# Methods: Data for patients who received the therapeutic dose of 4-aminopyridine-SR, 10mg bid, in three randomized controlled trials (MS-F202, MS-F203, and MS-F204) were pooled (n=394) and compared to placebo (n=237). Comparative analyses were based on the percent change from baseline in WS using the timed 25-foot walk. […] The percent change in WS for the pooled populations for each double-blind visit was evaluated by time interval to account for differences in study schedules (Days 1-21, 22-49, 50-77, and 78-end of double-blind phase). The percent changes were analyzed with analysis of variance with effects for treatment group, study, and site within study.
# [2] = Pharmacokinetics after i.v. and p.o. 4-aminopyridine (2 mg/kg) in rats; details: single p.o. 2 mg/kg
# Description: Distribution: The volume of distribution at steady state (Vdss) in rats has been reported to approximate total body volume (not adjusted for bioavailability).
# [3] = tested on: patients with multiple sclerosis; assay: MS-F204 Phase 3 double-blind placebo-controlled study
# Description: Each of two Phase 3 studies (MS-F203 and MS-F204) was a parallel group, randomized, double-blind study comparing 4-aminopyridine-SR 10 mg b.i.d. with placebo. […] The 12-item Multiple Sclerosis Walking Scale and the Subject Global Impression and Clinician Global Impression were used to validate the clinical meaningfulness of the Timed-Walk response criterion. Secondary efficacy variables included walking speed, Lower Extremity Manual Muscle Test (LEMMT) score and the Ashworth spasticity score, the latter two averaged across eight and six lower extremity muscle groups, respectively. Duration of double-blind treatment on which efficacy was based was 14 weeks in the first study and 8 weeks in the second study. A two-week single blind placebo run-in period preceded the double-blind period.
# In the MS-F204 study, the primary efficacy variable was also Responder status, based on consistent improvement in walking speed on the T25FW. A Timed-Walk Responder was defined as a patient with a faster walking speed for at least three of the first four double-blind visits as compared to the maximum walking speed for any of the pre-treatment visits and the post-treatment visit.
# The secondary efficacy variable was average change from baseline in LEMMT score during the double-blind period, comparing 4-aminopyridine-treated Timed-Walk Responders and Non-Responders separately against the placebo-treated group. Other measures, the MSWS-12, SGI, CGI and Ashworth score, were included only for the purposes of a pooled analysis and comparison with the results of the other two trials.
# This study in this Example was a 39 center, double-blind trial in patients with definite multiple sclerosis of any course type. Participants were randomized to 9 weeks of treatment with 4-aminopyridine (10 mg twice daily; n=120) or placebo (n=119). Response was defined as consistent improvement on the Timed 25-Foot Walk, with percentage of Timed Walk Responders (TWR) in each treatment group as the primary outcome. The last on-treatment visit provided data from 8-12 h post-dose, to examine maintenance of effect.
# Study Design. This was a randomized, double-blind, placebo-controlled trial, as depicted in FIG. 14. Patients underwent screening without receiving any study medication and eligible patients returned one week later (Visit 0, see FIG. 14). Patients then entered a two-week, single-blind, placebo run-in period; Visit 1 occurred at the end of the first week of placebo run-in and Visit 2 at the end of the second week. Patients were instructed to take one blinded tablet (supplied in appropriate quantities at each clinic visit) every 12 hours during the treatment phase.
# At Visit 2, patients were randomized equally to one of two treatment groups, sustained release 4-aminopyridine (4-aminopyridine-SR, 10 mg twice daily) or placebo, using a predetermined, computer-generated randomization schedule, blocked and stratified by treatment-site and pre-numbered treatment kits. Independent statistical, packaging and distribution contractors were used to maintain the blind for all other personnel.
# Following randomization, patients returned every two weeks for evaluation at Visits 3-6. The patients were then instructed to return in one week for Visit 7 and to arrange the timing of their last dose of study medication such that the clinic visit would allow for assessments to be made between 10 and 12 hours after this last dose was taken. Following Visit 7, patients began a two-week period of no treatment, returning for follow-up assessments at Visit 8.
smiles,measurement,setting,value
Nc1ccncc1 [4-aminopyridine],double-blind average percent change from baseline in walking speed,[1]; average improvement,24%
same,average increase in walking speed by time from last dose,[1]; dose interval 9-10 hrs,25%
same,average increase in walking speed by time from last dose,[1]; dose interval 10-11 hrs,24%
same,average increase in walking speed by time from last dose,[1]; dose interval 11-12 hrs,20%
same,Vdss lower in females than in males,[2],13%
same,Mantel-Haenszel Odds Ratio for Timed Walk Response vs placebo,[3]; 10 mg b.i.d.,8.14
same,Timed-Walk Responder rate,[3]; 10 mg b.i.d.,42.9%
same,plasma concentration below which there is a marked reduction in walking speed improvement,[3]; FIG. 27,below 13 ng/mL
same,plasma concentration below which there is a reduction in walking speed improvement,[3]; FIG. 27,below 15 ng/mL
same,average change from baseline in walking speed (Visits 3-6),[3]; Timed Walk Non-Responders,0.12 ft/sec
same,"average improvement in walking speed from baseline, double-blind efficacy period (Visits 3-6)","[3]; Timed Walk Non-responders, 10 mg b.i.d.",6.0%
same,average change from baseline in walking speed (Visits 3-6),[3]; Timed Walk Responders,0.51 ft/sec
same,"improvement from baseline walking speed at Visit 7, first evaluation (last on-treatment visit)",[3]; Timed Walk Responders,25.7%
same,"average improvement in walking speed from baseline, double-blind efficacy period (Visits 3-6)","[3]; Timed Walk Responders, 10 mg b.i.d.",24.7% and 25%
same,mean improvement in walking speed at Visit 7,"[3]; Timed Walk Responders, 9-10 h post dose",25.5%
same,mean improvement in walking speed at Visit 7,"[3]; Timed Walk Responders, 10-11 h post dose",25.3%
same,mean improvement in walking speed at Visit 7,"[3]; Timed Walk Responders, 11-12 h post dose",20.1% and 20%
same,reduction of average plasma concentration at the first assessment at Visit 7,"[3]; human, in vivo, 10 mg b.i.d.",approximately 25%
